Key:
Type in all cases: in vivo
[1] = system: Pharbitis purpurea (PHBPU); test: Post-emergence herbicidal action, greenhouse pot test
Outline: (§1)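 Greenhouse-grown weeds in sandy loam were sprayed post-emergence at the one-leaf stage, 2–3 weeks after sowing. Compounds were formulated as WP or EC in water with 0.5% additive at 600 l/ha, at rates of 20 g/ha or less. Visual rating after about 3 weeks used a scale from 0% (like untreated control) to 100% (plants dead).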

[2] = system: Abutilon theophrasti (ABUTH); test: as above
Outline: as §1

Veronica persica (VERPE) = test: as above
Outline: as §1

[3] = system: Polygonum convolvulus (POLCO); test: as above
Outline: as §1

Stellaria media (STEME) = test: as above
Outline: as §1

Avena fatua (AVEFA) = test: as above
Outline: as §1

Viola tricolor (VIOTR) = test: as above
Outline: as §1

[4] = system: Amaranthus retroflexus (AMARE); test: as above
Outline: as §1

Lolium rigidum (LOLRI) = test: as above
Outline: as §1

Hordeum murinum (HORMU) = test: as above; conditions: rated visually after about 3 weeks vs untreated controls, 100% = plants have died
Outline: as §1

Oryza sativa (ORYSA) = test: Post-emergence crop plant compatibility, greenhouse pot test (also comparative test C); conditions: vs untreated controls
Outline: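 Rice and other crops sprayed post-emergence at one-leaf stage (2–3 weeks after sowing) with WP or EC formulations plus 0.5% additive at 600 l/ha water. Visual rating about 3 weeks later versus untreated controls (100% = dead, 0% = like control); suffixes a–c denote different doses.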

Brassica napus (BRSNW) = test: Post-emergence crop plant compatibility, greenhouse pot test; conditions: 1.25 g/ha, vs untreated controls
Outline: (§2)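 Greenhouse-grown crop plants sprayed post-emergence at the one-leaf stage with WP or EC formulations plus 0.5% additive, at 600 l/ha water. Damage rated visually after about 3 weeks versus untreated controls (0% = like control, 100% = dead); suffixes a/b/c denote different dosages.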

Zea mays (ZEAMX) = test: as above; conditions: vs untreated controls
Outline: as §2

Setaria viridis (SETVI) = test: Post-emergence herbicidal action, greenhouse pot test (also comparative test C)
Outline: (§3)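 Green parts of one-leaf-stage plants are sprayed at 600 l/ha with formulated compound plus 0.5% additive, then kept under optimum greenhouse conditions for about 3 weeks. Damage is scored visually, where 100% means dead plants and 0% means no difference from controls.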

[5] = system: Matricaria inodora (MATIN); test: as above
Outline: as §3

[6] = system: Alopecurus myosuroides (ALOMY); test: as above
Outline: as §3

[7] = system: Echinochloa crus-galli (ECHCG); test: as above
Outline: as §3

[8] = system: Triticum aestivum (TRZAS); test: Post-emergence crop plant compatibility, greenhouse pot test; conditions: 1.25 g/ha, vs untreated controls
Outline: as §2

Glycine max (GLXMA) = test: as above
Outline: as §2

[9] = 1.25 g/ha, rated visually after about 3 weeks vs untreated controls, 100% = plants have died
[10] = 5 g/ha, rated visually after about 3 weeks vs untreated controls, 100% = plants have died
[11] = 20 g/ha, rated visually after about 3 weeks vs untreated controls, 100% = plants have died
[12] = Ipomoea purpurea, 504 h, read-out: Post-emergence action against PHBPU in %
[13] = Veronica persica, 504 h, read-out: Post-emergence action against VERPE
[14] = Fallopia convolvulus, 504 h, read-out: Post-emergence action against POLCO in %
[15] = Viola tricolor, 504 h, read-out: Post-emergence action against VIOTR
[16] = Setaria viridis, 504 h, read-out: Post-emergence action against SETVI in %
[17] = Tripleurospermum inodorum, 504 h, read-out: Post-emergence action against MATIN in %

COCCCOC(=O)COc1ccccc1Sc1cc(-n2c(=O)cc(C(F)(F)F)n(C)c2=O)c(F)cc1Cl [I.1-26]
Post-emergence action against PHBPU in % ([1]; dosage 1.25 g/ha): 100% | Post-emergence action against PHBPU in % ([1]; dosage 5 g/ha): 100% | Post-emergence action against PHBPU in % ([1]; dosage 20 g/ha): 100% | Post-emergence action at 1.25 g/ha against ABUTH in % [2, 9]: 100% | Post-emergence action at 5 g/ha against ABUTH in % [2, 10]: 100% | Post-emergence action at 20 g/ha against ABUTH in % [2, 11]: 100% | Post-emergence action against VERPE (Veronica persica (VERPE); 1.25 g/ha): 100% | Post-emergence action against VERPE (Veronica persica (VERPE); 5 g/ha): 100% | Post-emergence action against VERPE (Veronica persica (VERPE); 20 g/ha): 100% | Post-emergence action against POLCO in % ([3]; dosage 1.25 g/ha): 100% | Post-emergence action against POLCO in % ([3]; dosage 5 g/ha): 100% | Post-emergence action against POLCO in % ([3]; dosage 20 g/ha): 100% | Post-emergence action against STEME (Stellaria media (STEME); 1.25 g/ha): 100% | Post-emergence action against STEME (Stellaria media (STEME); 5 g/ha): 100% | Post-emergence action against STEME (Stellaria media (STEME); 20 g/ha): 100% | Post-emergence action at 20 g/ha against AVEFA in % (Avena fatua (AVEFA); [11]): 80% | Post-emergence action against VIOTR (Viola tricolor (VIOTR); 1.25 g/ha): 100% | Post-emergence action against VIOTR (Viola tricolor (VIOTR); 5 g/ha): 100% | Post-emergence action against VIOTR (Viola tricolor (VIOTR); 20 g/ha): 100% | Post-emergence action at 1.25 g/ha against AMARE in % [4, 9]: 100% | Post-emergence action at 5 g/ha against AMARE in % [4, 10]: 100% | Post-emergence action at 20 g/ha against AMARE in % [4, 11]: 100% | Post-emergence action at 5 g/ha against LOLRI in % (Lolium rigidum (LOLRI); [10]): 80% | Post-emergence action against LOLRI in % (Lolium rigidum (LOLRI); dosage 20 g/ha): 90% | Post-emergence action at 5 g/ha against HORMU in % (Hordeum murinum (HORMU); 5 g/ha): 80% | Post-emergence action at 20 g/ha against HORMU in % (Hordeum murinum (HORMU)): 90% | Post-emergence action against ORYSA (crop plant compatibility) (Oryza sativa (ORYSA); 1.25 g/ha): 10% | Post-emergence action against BRSNW (crop plant compatibility) (Brassica napus (BRSNW)): 20% | Post-emergence action against ZEAMX (crop plant compatibility) (Zea mays (ZEAMX); 1.25 g/ha): 10% | Post-emergence action against ZEAMX (crop plant compatibility) (Zea mays (ZEAMX); 5 g/ha): 20% | Post-emergence action against SETVI (Setaria viridis (SETVI); 20 g/ha): 100% | Post-emergence action against SETVI in % (Setaria viridis (SETVI); dosage 1.25 g/ha): 100% | Post-emergence action against SETVI in % (Setaria viridis (SETVI); dosage 5 g/ha): 100% | Post-emergence action against MATIN in % ([5]; dosage 1.25 g/ha): 80% | Post-emergence action against MATIN in % ([5]; dosage 5 g/ha): 80% | Post-emergence action against MATIN in % ([5]; dosage 20 g/ha): 100% | Post-emergence action at 5 g/ha against ALOMY in % [6, 10]: 80% | Post-emergence action at 20 g/ha against ALOMY in % [6, 11]: 90% | Post-emergence action at 1.25 g/ha against ECHCG in % [7, 9]: 90% | Post-emergence action against ECHCG in % ([7]; dosage 5 g/ha): 90% | Post-emergence action against ECHCG in % ([7]; dosage 20 g/ha): 100%

COCCOC(=O)COc1ccccc1Sc1cc(-n2c(=O)cc(C(F)(F)F)n(C)c2=O)c(F)cc1Cl [I.1-1, 2-Methoxyethyl [2-({2-chloro-4-fluoro-5-[3-methyl-2,6-dioxo-4-(trifluoromethyl)-3,6-dihydropyrimidin-1(2H)-yl]phenyl}sulfanyl)phenoxy]acetate]
pest or weed control at 1.25 g/ha [1, 12]: 100% | pest or weed control at 5 g/ha [1, 12]: 100% | pest or weed control at 20 g/ha [1, 12]: 100% | pest or weed control at 1.25 g/ha ([2]; Abutilon theophrasti, 504 h, read-out: Post-emergence action at 1.25 g/ha against ABUTH in %): 100% | pest or weed control at 5 g/ha ([2]; Abutilon theophrasti, 504 h, read-out: Post-emergence action at 5 g/ha against ABUTH in %): 100% | pest or weed control at 20 g/ha ([2]; Abutilon theophrasti, 504 h, read-out: Post-emergence action at 20 g/ha against ABUTH in %): 100% | pest or weed control at 1.25 g/ha (Veronica persica (VERPE); [13]): 80% | pest or weed control at 5 g/ha (Veronica persica (VERPE); [13]): 100% | pest or weed control at 20 g/ha (Veronica persica (VERPE); [13]): 100% | pest or weed control at 5 g/ha [3, 14]: 100% | pest or weed control at 20 g/ha [3, 14]: 100% | Post-emergence action against STEME (Stellaria media (STEME); 1.25 g/ha): 80% | Post-emergence action against STEME (Stellaria media (STEME); 5 g/ha): 100% | Post-emergence action against STEME (Stellaria media (STEME); 20 g/ha): 100% | pest or weed control at 20 g/ha (Avena fatua (AVEFA); Avena fatua, 504 h, read-out: Post-emergence action at 20 g/ha against AVEFA in %): 80% | pest or weed control at 1.25 g/ha (Viola tricolor (VIOTR); [15]): 100% | pest or weed control at 5 g/ha (Viola tricolor (VIOTR); [15]): 100% | pest or weed control at 20 g/ha (Viola tricolor (VIOTR); [15]): 100% | pest or weed control at 1.25 g/ha ([4]; Amaranthus retroflexus, 504 h, read-out: Post-emergence action at 1.25 g/ha against AMARE in %): 90% | pest or weed control at 5 g/ha ([4]; Amaranthus retroflexus, 504 h, read-out: Post-emergence action at 5 g/ha against AMARE in %): 100% | pest or weed control at 20 g/ha ([4]; Amaranthus retroflexus, 504 h, read-out: Post-emergence action at 20 g/ha against AMARE in %): 100% | Post-emergence action at 20 g/ha against HORMU in % (Hordeum murinum (HORMU)): 100% | Post-emergence action against ORYSA (crop plant compatibility) (Oryza sativa (ORYSA); 1.25 g/ha): 10% | Post-emergence action against ORYSA (crop plant compatibility) (Oryza sativa (ORYSA); 5 g/ha): 10% | Post-emergence action against TRZAS (crop plant compatibility) [8]: 20% | Post-emergence action against GLXMA in % (Glycine max (GLXMA); 1.25 g/ha): 0% | Post-emergence action against GLXMA in % (Glycine max (GLXMA); 5 g/ha): 20% | Post-emergence action against ZEAMX (crop plant compatibility) (Zea mays (ZEAMX); 1.25 g/ha): 20% | pest or weed control at 20 g/ha (Setaria viridis (SETVI); Setaria viridis, 504 h, read-out: Post-emergence action against SETVI): 100% | pest or weed control at 1.25 g/ha (Setaria viridis (SETVI); [16]): 100% | pest or weed control at 5 g/ha (Setaria viridis (SETVI); [16]): 100% | pest or weed control at 5 g/ha [5, 17]: 100% | pest or weed control at 20 g/ha [5, 17]: 100% | pest or weed control at 20 g/ha ([6]; Alopecurus myosuroides, 504 h, read-out: Post-emergence action at 20 g/ha against ALOMY in %): 80% | pest or weed control at 20 g/ha ([7]; Echinochloa crus-galli, 504 h, read-out: Post-emergence action against ECHCG in %): 80%

— US20240025862A1, “SUBSTITUTED N-PHENYLURACILS AND SALTS THEREOF, AND USE THEREOF AS HERBICIDAL ACTIVE SUBSTANCES” (Bayer Aktiengesellschaft, priority 2020, published 2024)
